# Earlier results as cited in patent publication US20260284233A1, “IMAGING METHODS AND AGENTS FOR GRADING AND STAGING AND SUBSEQUENT TREATMENT OF PROSTATE CANCER IN A PATIENT” (Progenics Pharmaceuticals, Inc., priority 2023, published 2026).
# How the values were obtained:
# [1] = 333 MBq (9 mCi) dose; data from clinical trials; compared with commonly used tracers for oncologic imaging
# [2] = tested on: extracellular domain of PSMA
structure (smiles),measurement,setting,value
O=C(O)CC[C@H](NC(=O)N[C@@H](CCCCNC(=O)c1ccc([18F])nc1)C(=O)O)C(=O)O [piflufolastat F18],mean effective radiation dose to the whole body,[1],lower than commonly used tracers for oncologic imaging
same,binding affinity to the extracellular domain of PSMA,[2],high affinity
